This is an account of results in patent US20030203963A1, “Antimicrobial agent” (priority 2001, published 2003).

In one series the test system is Ps. fluorescens. The series is described as follows: Chicken soup at 8° C. (summary). Type of series: cell-based, Pseudomonas fluorescens. The note with it: Chicken soup at 8° C. pH 5.8. The text has this: (§1) A local supermarket brand of cream of chicken soup was used as a model food system. 600 g packs were purchased from the local supermarket. This was a ‘fresh home-made type’ of soup that was stored in the chill cabinet, with a short shelf life. It was chosen because it is a rich, nutritious food system containing a range of food components including meat, dairy and vegetable.
(§2) Ingredients were labelled as: chicken stock (water, duck fat, chicken, salt, flavourings, yeast extracts, pork gelatine, glucose syrup, vegetable concentrate, milk protein, sugar, malto-dextrin, vegetable oil, citric acid, lactose, chicken fat), ilk, chicken (9%), cream (8%), onion, potato, vegetable oil, modified maize starch, wheat flour, lemon juice, salt, white pepper. pH 5.912. Protein: 3.3%; carbohydrate: 4.7%; fat: 7.2%; fibre: 0.2%; sodium: 0.1%
(§3) For the test the soup was mixed 2:1 in water (to facilitate sampling and mixing) and sterilised by autoclaving at 121° C. for 15 minutes. For each experiment the pH of the soup was recorded; this was between pH 5.79-5.88.
For TCS010412/8 (which was incubated at 8° C.), APP batch number APP20010213 (concentration 169 mg APP/ml) was used to prepare tests containing 0, 2000 or 4000 ppm APP. […]
For TCS010521/8 (incubated at 8° C.), samples were prepared in 27.8 g quantities. […]

The next series can be described thus: Stability in water. Type of series: physicochemical. As to conditions: water at 24° C. Here is the method:
Tests indicate that APP is stable in water at 24° C. for 2 weeks, but completely disappears after 2 months. […] At pH 11-12.5 APP has a half-life of 5 h. Since most food is acidic or neutral, the stability may therefore be improved by using APP in combination with an antioxidant such as those listed hereinbefore.

For a further series, the system named is Ps. fluorescens 327. Description: Chicken soup trial at 8° C. The series is classed as cell-based, Pseudomonas fluorescens. The note with it: chicken soup at 8° C., TCSM010521, APP215.
Text: as §1, §2, §3
For TCS010521/8 (incubated at 8° C.), samples were prepared in 27.8 g quantities. 1.5 g of an APP stock solution was added, and the tests inoculated with 0.3 ml of a suitably diluted cell or spore suspension to give a final inoculum of ca. 10^3 cfu/g. APP was tested at 0, 500 and 1000 ppm, and batch number APP20010213 (at 169 mg/ml) was used. The tests were sampled by viable count and then incubated at 8° C. and tested on a twice-weekly basis.

The subject of series [1] is Rhodotorula mucilaginosa var mucilaginosa CBS8161. Description: Test in apple juice. Type of series: cell-based. The note with it: for Growth inhibition: apple juice (pH 3.42) at 25° C., TAJ010530. Here is the method: (§4) 8.9 ml apple juice samples (pH 3.42) were prepared and autoclaved. Batch number APP20010215 (at 138 mg/ml) was used to prepare filter-sterilised stock solutions for 1 ml addition to the juice to achieve 0, 1000, 2000 ppm APP. Tests were inoculated with 100 μl of an appropriately diluted overnight SLM broth of yeast culture or ascospore suspension of Byssochlamys spores prepared earlier. The tests were incubated at 25° C., and examined daily for signs of growth (e.g. turbidity, mycelium development).

Series [2] deals with Byssochlamys fulva 040021. Description: Test in apple juice. The series is classed as cell-based. The note with it: apple juice (pH 3.42) at 25° C., TAJ010530. As to the method:
as §4

In a further series the test system is Candida parapsilosis 458. The series is described as follows: Test in apple juice. The series is classed as cell-based. As to conditions: apple juice (pH 3.42) at 25° C., TAJ010530. As to the method:
as §4

The test system of series [3] is Zygosaccharomyces bailii CRA229. The series is described as follows: Test in apple juice. As to conditions: for Growth controlled for: apple juice (pH 3.42) at 25° C., TAJ010530. The series is classed as cell-based. As to the method: as §4
The subject of the next series is B. nivea 163642. The series is described as follows: Test in apple juice. The series is classed as cell-based. The note with it: apple juice (pH 3.42) at 25° C., TAJ010530. As to the method: as §4
For series [4], the system named is Hanseniaspora uvarum CBS5074. Description: Test in apple juice. The note with it: for Growth inhibition: apple juice (pH 3.42) at 25° C., TAJ010530. The series is classed as cell-based. As to the method:
as §4

`O=C1CC(CO)OC=C1O` (stereo not drawn) [APP, Ascopyrone P]: in the series with Ps. fluorescens, the “Total inhibition (effect on growth of target organism by 2000 ppm APP)” value is reported as “Ps. fluorescens”. Also, the Completely disappears after in the series “Stability in water” was 2 months. In “Stability in water”, the “Stable in water for” value came out at 2 weeks. The Effect on growth entry in the series with Ps. fluorescens 327 (500 ppm) was “Little effect with 500 ppm”. Besides, in the series on Ps. fluorescens 327 (1000 ppm), the Counts undetectable entry is “At 1000 ppm counts undetectable >7 d”. In the series with Ps. fluorescens 327 (1000 ppm), the “Total inhibition for” value is listed as “Total inhibition by 1000 ppm for >27 days”. In addition, the Growth inhibition result (in series [1] (1000 ppm); in series [1] (2000 ppm); in series [2] (1000 ppm); in [2] (2000 ppm); in the series on Candida parapsilosis 458 (1000 ppm); with Candida parapsilosis 458 (2000 ppm)) was “No growth inhibition” throughout. For the same compound, the Growth inhibition result (in the series on B. nivea 163642 (1000 ppm); with B. nivea 163642 (2000 ppm); in [4] (1000 ppm); in [4] (2000 ppm)) was “No growth inhibition” in each case. Further, the “No inhibition (effect on growth of target organism by 2000 ppm APP)” value is on record as “Rh. mucilaginosa” in series [1] (Apple juice at ambient pH 3.4) and “H. uvarum” in [4] (Apple juice at ambient pH 3.4). The “Growth controlled for” value in series [3] (1000 ppm) and in [3] (2000 ppm) was 34 days each time. For the same compound, the “Partial inhibition (effect on growth of target organism by 2000 ppm APP)” value in [3] (Apple juice at ambient pH 3.4) was “Z. bailii”.
